Assay results taken from ChEMBL document CHEMBL4699477, “Tricyclic sulfones as potent, selective and efficacious RORγt inverse agonists - Exploring C6 and C8 SAR using late-stage functionalization” (Bioorg Med Chem Lett, 2020).

How the values were obtained:
[1] = Total AUC in cynomolgus monkey at 2 mg/kg, po; format: ADME, organism-based, Macaca fascicularis; parameters: route oral, time AUCmax, dose 2 mg/kg; details: in vivo
[2] = Volume of distribution at steady state in cynomolgus monkey at 1 mg/kg, iv; format: ADME, organism-based, Macaca fascicularis; details: in vivo, read-out: Vdss
[3] = molecular target: T1, Cytochrome P450 2C8 (Homo sapiens, UniProt P10632); assay: Inhibition of recombinant CYP2C8 (unknown origin); format: ADME
T1 sequence (P10632 whole entry): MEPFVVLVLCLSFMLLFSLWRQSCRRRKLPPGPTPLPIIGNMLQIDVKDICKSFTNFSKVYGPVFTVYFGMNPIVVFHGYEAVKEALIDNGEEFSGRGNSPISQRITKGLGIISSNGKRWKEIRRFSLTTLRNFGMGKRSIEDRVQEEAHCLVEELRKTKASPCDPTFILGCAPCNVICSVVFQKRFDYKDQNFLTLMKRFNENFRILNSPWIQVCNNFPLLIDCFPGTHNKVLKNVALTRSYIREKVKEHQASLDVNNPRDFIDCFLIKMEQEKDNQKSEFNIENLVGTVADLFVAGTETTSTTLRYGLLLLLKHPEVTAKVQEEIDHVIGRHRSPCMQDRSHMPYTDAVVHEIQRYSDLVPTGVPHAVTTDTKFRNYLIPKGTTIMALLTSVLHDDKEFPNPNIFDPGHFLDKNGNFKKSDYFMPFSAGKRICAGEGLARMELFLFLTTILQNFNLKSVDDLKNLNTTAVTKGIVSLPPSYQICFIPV

[4] = Oral bioavailability in dog at 2 mg/kg; format: ADME, organism-based, Canis lupus familiaris; details: in vivo
[5] = Total AUC in dog at 2 mg/kg, po; format: ADME, organism-based, Canis lupus familiaris; parameters: time AUCmax, route oral, dose 2 mg/kg; details: in vivo
[6] = Cmax in rat at 4 mg/kg, po; format: ADME, organism-based; parameters: route oral, dose 4 mg/kg; details: in vivo
[7] = molecular target: T2, Cytochrome P450 1A2 (Homo sapiens, UniProt P05177); assay: Inhibition of recombinant CYP1A2 (unknown origin); format: ADME
T2 sequence (P05177 whole entry): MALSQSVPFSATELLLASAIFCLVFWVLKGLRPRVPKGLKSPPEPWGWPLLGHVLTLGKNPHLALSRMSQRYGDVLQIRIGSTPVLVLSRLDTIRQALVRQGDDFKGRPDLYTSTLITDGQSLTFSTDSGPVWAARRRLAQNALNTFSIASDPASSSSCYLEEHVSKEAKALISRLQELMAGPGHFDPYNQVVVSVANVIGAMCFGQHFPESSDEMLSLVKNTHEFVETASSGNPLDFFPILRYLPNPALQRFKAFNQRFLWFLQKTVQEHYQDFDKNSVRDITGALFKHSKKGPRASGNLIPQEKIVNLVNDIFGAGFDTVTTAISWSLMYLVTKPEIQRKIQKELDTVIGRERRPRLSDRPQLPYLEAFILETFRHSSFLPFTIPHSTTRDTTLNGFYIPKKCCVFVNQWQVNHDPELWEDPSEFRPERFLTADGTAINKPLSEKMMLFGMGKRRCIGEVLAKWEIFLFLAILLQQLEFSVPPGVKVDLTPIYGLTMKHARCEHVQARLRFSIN

[8] = Metabolic stability in human liver microsomes assessed as half life; format: ADME, Microsome
[9] = Metabolic stability in rat liver microsomes assessed as half life; format: ADME, Microsome
[10] = Total AUC in cynomolgus monkey at 1 mg/kg, iv; format: ADME, organism-based, Macaca fascicularis; parameters: time AUCmax, route intravenous, dose 1 mg/kg; details: in vivo
[11] = Oral bioavailability in BALB/c mouse at 4 mg/kg; format: ADME, organism-based; details: in vivo
[12] = molecular target: Cytochrome P450 2D6 (Homo sapiens, UniProt P10635); assay: Inhibition of recombinant CYP2D6 (unknown origin); format: ADME
Cytochrome P450 2D6, sequence (P10635 whole entry): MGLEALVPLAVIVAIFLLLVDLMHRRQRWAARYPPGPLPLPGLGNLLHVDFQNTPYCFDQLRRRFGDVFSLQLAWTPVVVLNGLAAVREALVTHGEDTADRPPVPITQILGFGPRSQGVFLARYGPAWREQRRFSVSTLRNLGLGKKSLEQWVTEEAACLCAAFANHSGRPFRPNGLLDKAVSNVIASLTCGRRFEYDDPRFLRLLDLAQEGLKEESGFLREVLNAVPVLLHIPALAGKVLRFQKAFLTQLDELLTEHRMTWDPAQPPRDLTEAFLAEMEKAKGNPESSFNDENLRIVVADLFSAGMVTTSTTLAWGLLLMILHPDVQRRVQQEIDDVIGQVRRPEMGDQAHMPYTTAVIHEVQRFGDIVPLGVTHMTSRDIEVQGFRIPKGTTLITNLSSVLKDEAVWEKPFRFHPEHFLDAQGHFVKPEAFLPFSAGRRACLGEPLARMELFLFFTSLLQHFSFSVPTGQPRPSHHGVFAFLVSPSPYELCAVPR

[13] = Metabolic stability in mouse liver microsomes assessed as half life; format: ADME, Microsome
[14] = Half life in rat at 2 mg/kg, iv; format: ADME, organism-based; details: in vivo
[15] = molecular target: T3, Nuclear receptor ROR-alpha (Homo sapiens, UniProt P35398); assay: Inhibition of GAL4-fused RORalpha (unknown origin)
T3 sequence (P35398 whole entry): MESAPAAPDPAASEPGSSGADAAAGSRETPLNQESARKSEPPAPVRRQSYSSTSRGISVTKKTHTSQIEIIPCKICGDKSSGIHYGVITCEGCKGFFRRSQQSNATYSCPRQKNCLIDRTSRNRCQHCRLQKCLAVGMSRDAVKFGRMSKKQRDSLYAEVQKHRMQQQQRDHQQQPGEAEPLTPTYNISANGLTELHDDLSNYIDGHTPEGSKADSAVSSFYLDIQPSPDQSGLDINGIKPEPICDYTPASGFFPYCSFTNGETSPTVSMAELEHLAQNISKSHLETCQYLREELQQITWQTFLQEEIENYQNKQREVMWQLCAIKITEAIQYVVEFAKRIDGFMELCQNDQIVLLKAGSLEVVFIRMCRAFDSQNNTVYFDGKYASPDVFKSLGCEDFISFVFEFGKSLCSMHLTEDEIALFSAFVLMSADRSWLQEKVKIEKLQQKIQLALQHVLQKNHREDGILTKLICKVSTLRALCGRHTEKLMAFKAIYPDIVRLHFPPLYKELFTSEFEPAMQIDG

[16] = Oral bioavailability in rat at 4 mg/kg; format: ADME, organism-based; details: in vivo
[17] = Metabolic stability in dog liver microsomes assessed as half life; format: ADME, Canis lupus familiaris, Microsome
[18] = Cmax in dog at 2 mg/kg, po; format: ADME, organism-based, Canis lupus familiaris; parameters: route oral, dose 2 mg/kg; details: in vivo
[19] = Oral bioavailability in cynomolgus monkey at 2 mg/kg; format: ADME, organism-based, Macaca fascicularis; details: in vivo
[20] = Clearance in rat at 2 mg/kg, iv; format: ADME, organism-based; details: in vivo
[21] = molecular target: Cytochrome P450 2C9 (Homo sapiens, UniProt P11712); assay: Inhibition of recombinant CYP2C9 (unknown origin); format: ADME
Cytochrome P450 2C9, sequence (P11712 whole entry): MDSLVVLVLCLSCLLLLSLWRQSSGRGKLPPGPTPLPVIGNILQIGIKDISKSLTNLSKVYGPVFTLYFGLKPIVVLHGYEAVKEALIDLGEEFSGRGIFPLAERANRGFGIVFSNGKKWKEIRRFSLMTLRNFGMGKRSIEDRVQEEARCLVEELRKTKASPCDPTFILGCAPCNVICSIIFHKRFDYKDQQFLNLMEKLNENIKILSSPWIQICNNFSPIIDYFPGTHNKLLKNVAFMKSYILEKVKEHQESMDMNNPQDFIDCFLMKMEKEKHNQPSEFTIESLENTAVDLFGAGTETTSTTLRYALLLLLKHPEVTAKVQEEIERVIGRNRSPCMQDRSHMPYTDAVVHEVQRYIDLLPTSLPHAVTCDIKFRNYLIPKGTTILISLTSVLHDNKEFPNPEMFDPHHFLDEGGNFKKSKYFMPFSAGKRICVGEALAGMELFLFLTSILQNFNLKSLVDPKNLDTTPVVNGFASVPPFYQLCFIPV

[22] = molecular target: Cytochrome P450 3A4 (Homo sapiens, UniProt P08684); assay: Inhibition of recombinant CYP3A4 (unknown origin); format: ADME
Cytochrome P450 3A4, sequence (P08684 whole entry): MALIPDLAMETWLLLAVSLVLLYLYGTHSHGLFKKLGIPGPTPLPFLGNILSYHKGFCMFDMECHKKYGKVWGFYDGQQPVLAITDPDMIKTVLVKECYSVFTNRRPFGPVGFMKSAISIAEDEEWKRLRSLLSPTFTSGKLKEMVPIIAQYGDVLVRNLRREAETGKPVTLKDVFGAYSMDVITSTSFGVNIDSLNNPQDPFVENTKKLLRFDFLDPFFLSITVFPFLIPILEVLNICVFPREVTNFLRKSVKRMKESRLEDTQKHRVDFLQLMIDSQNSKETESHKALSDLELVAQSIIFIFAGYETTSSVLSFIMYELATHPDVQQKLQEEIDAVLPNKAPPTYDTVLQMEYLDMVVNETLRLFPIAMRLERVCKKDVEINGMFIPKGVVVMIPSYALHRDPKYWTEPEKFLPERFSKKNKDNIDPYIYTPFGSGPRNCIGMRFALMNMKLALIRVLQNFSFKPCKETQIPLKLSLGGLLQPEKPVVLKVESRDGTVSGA

[23] = Permeability in human Caco-2 cells; format: ADME, cell-based; details: read-out: permeability
[24] = molecular target: T4, Nuclear receptor ROR-beta (Homo sapiens, UniProt Q92753); assay: Inhibition of GAL4-fused RORbeta (unknown origin)
T4 sequence (Q92753 whole entry): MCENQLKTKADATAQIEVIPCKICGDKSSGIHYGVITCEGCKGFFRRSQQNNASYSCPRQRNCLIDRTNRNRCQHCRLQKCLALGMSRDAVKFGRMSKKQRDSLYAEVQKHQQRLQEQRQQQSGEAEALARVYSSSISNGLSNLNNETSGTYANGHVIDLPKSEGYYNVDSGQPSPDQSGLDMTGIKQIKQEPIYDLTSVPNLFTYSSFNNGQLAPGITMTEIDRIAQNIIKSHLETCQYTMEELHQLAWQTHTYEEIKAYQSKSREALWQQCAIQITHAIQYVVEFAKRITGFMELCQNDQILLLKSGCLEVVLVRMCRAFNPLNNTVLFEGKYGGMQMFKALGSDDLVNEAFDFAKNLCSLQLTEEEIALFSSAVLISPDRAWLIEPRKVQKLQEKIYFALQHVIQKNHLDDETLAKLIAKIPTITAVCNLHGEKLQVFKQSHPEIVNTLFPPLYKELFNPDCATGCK

[25] = molecular target: Voltage-gated inwardly rectifying potassium channel KCNH2 (Homo sapiens, UniProt Q12809); assay: Inhibition of human ERG by patch clamp assay
Voltage-gated inwardly rectifying potassium channel KCNH2, sequence (Q12809 whole entry): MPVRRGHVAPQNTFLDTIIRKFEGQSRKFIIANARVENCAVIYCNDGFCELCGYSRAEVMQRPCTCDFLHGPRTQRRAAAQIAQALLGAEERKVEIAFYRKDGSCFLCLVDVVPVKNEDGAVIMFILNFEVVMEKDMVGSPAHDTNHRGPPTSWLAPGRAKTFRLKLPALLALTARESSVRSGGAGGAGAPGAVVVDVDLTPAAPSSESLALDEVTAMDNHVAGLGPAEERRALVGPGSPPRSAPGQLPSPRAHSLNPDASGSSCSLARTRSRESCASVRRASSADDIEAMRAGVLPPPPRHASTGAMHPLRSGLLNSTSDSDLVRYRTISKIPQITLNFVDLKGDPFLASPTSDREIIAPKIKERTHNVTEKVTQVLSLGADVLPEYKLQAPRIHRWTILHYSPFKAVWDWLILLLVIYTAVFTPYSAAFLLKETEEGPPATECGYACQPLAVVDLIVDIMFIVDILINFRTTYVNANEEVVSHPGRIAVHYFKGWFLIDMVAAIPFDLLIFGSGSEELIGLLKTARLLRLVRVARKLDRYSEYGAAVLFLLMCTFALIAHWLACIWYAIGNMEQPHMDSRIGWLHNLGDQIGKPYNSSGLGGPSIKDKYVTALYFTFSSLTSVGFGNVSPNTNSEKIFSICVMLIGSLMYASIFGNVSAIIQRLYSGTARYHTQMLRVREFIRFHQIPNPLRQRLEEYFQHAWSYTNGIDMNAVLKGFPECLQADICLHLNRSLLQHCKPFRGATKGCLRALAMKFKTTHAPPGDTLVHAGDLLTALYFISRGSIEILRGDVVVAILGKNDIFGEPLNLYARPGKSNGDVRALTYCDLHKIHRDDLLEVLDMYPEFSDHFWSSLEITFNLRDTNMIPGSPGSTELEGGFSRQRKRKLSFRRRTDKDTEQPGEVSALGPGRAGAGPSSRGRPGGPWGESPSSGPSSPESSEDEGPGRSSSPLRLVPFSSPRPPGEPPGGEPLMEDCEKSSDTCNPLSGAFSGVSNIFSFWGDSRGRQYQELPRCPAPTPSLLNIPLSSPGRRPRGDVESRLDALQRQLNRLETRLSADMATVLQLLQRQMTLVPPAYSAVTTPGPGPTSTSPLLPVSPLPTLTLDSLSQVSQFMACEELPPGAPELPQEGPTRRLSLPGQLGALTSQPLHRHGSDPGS

[26] = Cmax in BALB/c mouse at 4 mg/kg, po; format: ADME, organism-based; parameters: route oral, dose 4 mg/kg; details: in vivo
[27] = Volume of distribution at steady state in rat at 2 mg/kg, iv; format: ADME, organism-based; details: in vivo, read-out: Vdss

AUC [1]: 55 µM·h | Vd [2]: 1.2 L/kg | IC50 [3]: 1.9 µM | bioavailability [4]: 90% | AUC [5]: 144 µM·h | Cmax [6]: 4.1 µM | IC50 [7]: > 20 µM | half-life [8]: > 2 h | half-life [9]: > 2 h | AUC [10]: 23 µM·h | bioavailability [11]: 98% | IC50 [12]: > 20 µM | half-life [13]: > 2 h | half-life [14]: 5.8 h | EC50 [15]: > 10 µM | bioavailability [16]: 100% | half-life [17]: > 2 h | Cmax [18]: 3.8 µM | bioavailability [19]: 100% | clearance [20]: 2.6 mL/min/kg | IC50 [21]: > 20 µM | IC50 [22]: > 20 µM | Papp [23]: 12 ×10⁻⁶ cm/s | EC50 [24]: > 10 µM | Cmax [26]: 4.6 µM | Vd [27]: 1.3 L/kg
SMILES: C[C@H]1C[C@H](C(=O)O)CC[C@H]1C(=O)N1CC[C@@]2(S(=O)(=O)c3ccccc3)c3cc(F)c(C(F)(C(F)(F)F)C(F)(F)F)cc3CC[C@@H]12
IC50 [25]: 18 µM
